Experimental data: US12121510B2 (Cedars-Sinai Medical Center, priority 2016, dated 2024)
Like-named read-outs stand apart in the source and are kept apart here. Blank lines part the entries; values can stand above or below the compound they belong to.

Assays:
A549 or A549/DDP cells = test: CIS IC50 with constant DZ-SIM ester or amide, Crystal Violet assay; type: cell-based, human; settings: 72 h; for Sensitization of cancer cells to CIS: combination with CIS
Description: Cell proliferation is determined by a Crystal Violet assay. The data represent the mean+/−SEM for two assays done in quadruplicate.

[1] = test system: Ramos, a B-cell lymphoma, cultured as 3-D spheroids; test: Cell viability IC50 in 3-D spheroids; type: cell-based, human; settings: for IC50: Homo sapiens, Ramos 3-D spheroids, single agent
Description: (§1) Exemplary Embodiments are generally performed as follows, unless otherwise noted. Simvastatin is purchased from Ark Pharm, Inc. (Arlington Heights, IL). Cisplatin (CIS) is purchased from MedKoo Biosciences, Inc. (Chapel Hill, NC). Dihydroartemisinin is purchased from TCI America (Portland, OR). All other chemicals and reagents are purchased from standard sources such as Sigma-Aldrich and/or VWR and are of highest quality available. Puromycin dihydrochloride was purchased from Alfa Aesar (Tewksbury, MA). Deionized water ([…]) used for making solutions is obtained from Milli-Q Direct Ultrapure Water System from Millipore (Billerica, MA, USA). All intermediates are characterized by 1H NMR and mass analysis and the purity of compounds are analyzed by HPLC. 1H NMR data are collected on Bruker 400 MHz spectrometers using standard parameters; chemical shifts are reported in ppm (δ) in reference to residual non-deuterated solvent. ESI mass spectroscopy analysis is performed using a Thermo Fisher LTQ Orbitrap Elite system. IC50 is the half maximal inhibitory concentration and determined is determined by crystal violet assay unless otherwise noted.
Cancer cells were Ramos, a B-cell lymphoma, cultured as 3-D spheroids, cultured according to their standard culturing conditions.

22Rv1 = test: Cancer cell growth IC50 (crystal violet); type: cell-based, human; settings: Example 13, 72 h
Description: as §1
(§2) The crystal violet assay is performed as follows, unless otherwise noted. Cell lines are supplemented with RPMI 1640 medium, 10% fetal bovine serum, 1% PenStrep, and placed in a humidified atmosphere containing 5% CO2 at 37° C. 5,000 cells/well renal cancer cells and 10,000 cells/well lymphoma cells are seeded in 96 well plates in 100 microliter medium/per well for 24 h. […] Renal cancer cells are fixed with 3.7% paraformaldehyde for 15 minutes and are stained with Crystal violet solution (0.5% in 25% methanol) for 30 minutes. After rinsing with water cell layers are dried and decolorized with Sorenson citrate with shaking for 20 minutes. Light absorption of the extracted supernatant is read at 595 nm. Lymphoma cell growth was evaluated using MTT and cells are incubated for 4 hours. 100 microliters of isopropanol is added, and the extracted supernatant fraction is read at absorption maximum of 595 nm. […]

Namalwa = test: Lymphoma cell growth IC50 (MTT); type: cell-based, human
Description: as §1
(§3) The crystal violet assay is performed as follows, unless otherwise noted. Cell lines are supplemented with RPMI 1640 medium, 10% fetal bovine serum, 1% PenStrep, and placed in a humidified atmosphere containing 5% CO2 at 37° C. 5,000 cells/well renal cancer cells and 10,000 cells/well lymphoma cells are seeded in 96 well plates in 100 microliter medium/per well for 24 h. […] Renal cancer cells are fixed with 3.7% paraformaldehyde for 15 minutes and are stained with Crystal violet solution (0.5% in 25% methanol) for 30 minutes. After rinsing with water cell layers are dried and decolorized with Sorenson citrate with shaking for 20 minutes. Light absorption of the extracted supernatant is read at 595 nm. Lymphoma cell growth was evaluated using MTT and cells are incubated for 4 hours. 100 microliters of isopropanol is added, and the extracted supernatant fraction is read at absorption maximum of 595 nm.
(§4) Standard cell culture conditions typically are RPMI 1640 medium, 10% fetal bovine serum, 1% PenStrep, and are performed in a humidified atmosphere containing 5% CO2 at 37° C. Generally, 5,000 cells/well-10,000 cells/well are seeded in 96 well plates in 100 microliter medium/per well for 24 h, or as described in Example 16, unless otherwise noted. Certain cells require specialized media, growth factors, antibiotics, or culture condition adjustments, as will be apparent to a person of ordinary skill in the art.
(§5) Cell lines are cultured as follows. […] 5,000 cells/well renal cancer cells and 10,000 cells/well lymphoma cells are seeded in 96 well plates in 100 microliter medium/per well for 24 h. […] Renal cancer cells are fixed with 3.7% paraformaldehyde for 15 minutes and are stained with Crystal violet solution (0.5% in 25% methanol) for 30 minutes. After rinsing with water cell layers are dried and decolorized with Sorenson citrate with shaking for 20 minutes. Light absorption of the extracted supernatant is read at 595 nm. Lymphoma cell growth is evaluated using MTT and cells are incubated for 4 hours. 100 microliters of isopropanol is added, and the extracted supernatant fraction is read at absorption maximum of 595 nm.

Raji = test: Lymphoma cell growth IC50 (MTT); type: cell-based, human; settings: Example 13, 72 h, read-out: IC50
Description: as §1, §3, §4, §5

Ramos = test: Lymphoma cell growth IC50 (MTT); type: cell-based, human; settings: Example 13, 72 h, read-out: IC50
Description: as §1, §3, §4, §5

Daudi = test: Lymphoma cell growth IC50 (MTT); type: cell-based, human; settings: Example 13, 72 h, read-out: IC50
Description: as §1, §3, §4, §5

MIAPaCa II = test: Cancer cell growth IC50 / sensitization (crystal violet); type: cell-based
Description: as §1, §2

22Rv1 tumors = test: Prostate tumor xenograft growth; type: in vivo, mice; settings: IP twice per week, 37 days; SIM 1.1 mg/kg, DZ-SIM 5.5 mg/kg, DT 8 mg/kg
Description: A human prostate tumor xenograft model, 22Rv1 in immune compromised mice, is employed as follows. 1×10^6 freshly harvested cells of a cultured human prostate carcinoma cell line, 22Rv1, are inoculated s.q. in mice. Mice bearing 22Rv1 tumors (10 tumors/group) are randomized into 7 groups on day-1, and administered drugs by IP (intraperitoneally) at the next day (day-2), and subsequently twice per week, using the following drugs and dosages: a control/vehicle (V, i.e. no drug), DZ (5 μM or 3.9 mg/kg, calculated based on the body weight of mice which averaged 20 grams), SIM (5 μM or 1.1 mg/kg), DZ-SIM (5 μM or 5.5 mg/kg), docetaxel (DT, 8 mg/kg), SIM+DT (drug doses as indicated), and DZ-SIM+DT (drug doses as indicated). Administration is continued for a total of 37 days, and tumor volumes are measured at the indicated times (see FIG. 4). […] Thus therapeutically resistant prostate tumors can be rendered sensitive by DZ-SIM but not SIM.

CTC 752-S-1 = test: Circulating tumor cell growth IC50 / sensitization; type: cell-based, human; settings: for IC50: Homo sapiens, Example 23, CTC 752-S-1
Description: as §1, §4
Pancreatic cancer cells are cultured for 72 hours in vitro and exposed to the conventional chemotherapeutic drugs Gemcitabine (GEM) and Paclitaxel (PAC), known to inhibit pancreatic cancer growth in patients. GEM (or PAC) alone are compared to a combination with SIM, or a combination with DZ-SIM. […] Representative results are illustrated in the graphs in FIG. 3.
Cells are cultured according to their standard culturing conditions, and IC50s are determined as described herein-above.
Representative results of the determined IC50s are shown in the table below for the indicated cancer cells cultured in vitro, including CTCs (C752-S-1), B-Cell Lymphoma (Namalwa), prostate cancer cells (C4-2B), and renal cancer cells (Caki-1). The cells are cultured according to their standard culturing conditions, and IC50s are determined as described herein-above.

NKPC-961 = test: Sensitization of pancreatic cancer cells to CIS and GEM; type: cell-based, mouse
Description: GEM (or PAC) alone are compared to a combination with SIM, or a combination with DZ-SIM.

C4-2 = test: Cancer cell growth IC50 (crystal violet); type: cell-based; settings: Example 13, C42, 72 h
Description: as §1, §3, §4

ARCaP-E = test: Cancer cell growth IC50 (crystal violet); type: cell-based; settings: Example 13, 72 h
Description: as §1, §3, §4

MCF-7 = test: Cancer cell growth IC50 (crystal violet); type: cell-based
Description: as §1, §3, §4

PC3M = test: Cancer cell growth IC50 (crystal violet); type: cell-based; settings: Example 13, 72 h
Description: as §1, §3, §4

C4-2B = test: Cancer cell growth IC50 (crystal violet); type: cell-based
Description: as §1, §3, §4

U87 = test: Cancer cell growth IC50 (crystal violet); type: cell-based; settings: Example 13, 72 h
Description: as §1, §3, §4

PC3 = test: Cancer cell growth IC50 (crystal violet); type: cell-based
Description: as §1, §3, §4

LNCaP = test: Cancer cell growth IC50 (crystal violet); type: cell-based; settings: Example 13, 72 h
Description: as §1, §3, §4

Caki-1 = test: Renal cancer cell growth IC50 (crystal violet); type: cell-based, human; settings: Homo sapiens; Example 23; Caki-1; read-out: IC50
Description: as §1, §3, §4, §5

[2] = Homo sapiens, Example 23, read-out: IC50

SMILES: CCC(C)(C)C(=O)O[C@H]1C[C@@H](C)C=C2C=C[C@H](C)[C@H](CC[C@@H](O)C[C@@H](O)CC(=O)CCCCNC(=O)CCCCCN3/C(=C/C=C4\CCCC(/C=C/C5=[N+](CCCCS(=O)(=O)[O-])c6ccccc6C5(C)C)=C4Cl)C(C)(C)c4ccccc43)[C@H]21 [DZ-SIM amide]
Sensitization of cancer cells to CIS (A549 or A549/DDP cells): sensitize cancer cells to CIS

SMILES: CCC(C)(C)C(=O)O[C@H]1C[C@@H](C)C=C2C=C[C@H](C)[C@H](CC[C@@H]3C[C@@H](OC(=O)CCCCCN4/C(=C/C=C5\CCCC(/C=C/C6=[N+](CCCCS(=O)(=O)[O-])c7ccccc7C6(C)C)=C5Cl)C(C)(C)c5ccccc54)CC(=O)O3)[C@H]21 [DZ-SIM ester]
IC50 ([1]; 72 h): 2.74 µM
Increase of CIS cytotoxicity ([1]; Ramos, 2 μM DZ-SIM ester): over 190 fold
Potency relative to SIM ([1]; Ramos, 72 h): 5 fold
IC50 (22Rv1): 4.9 µM
IC50 (Namalwa; Example 13, 72 h, read-out: IC50): 7.15 µM
IC50 (Raji): 8.8 µM
IC50 (Ramos): 2.74 µM
IC50 (Daudi): 5.61 µM
IC50 (MIAPaCa II; Example 13, 72 h): 2.12 µM
Growth of 22Rv1 tumors in vivo (tumor volume) (22Rv1 tumors): inhibited the growth of tumors in vivo
Sensitization to GEM or PAC (CTC 752-S-1; CTC-752-S-1 human pancreatic cancer cells, 72 hours): more effective sensitizer to GEM or PAC than SIM
Reduction of the IC50 of CIS by combination (A549 or A549/DDP cells): up to 200 fold
Sensitization of cancer cells to CIS (A549 or A549/DDP cells): sensitize cancer cells to CIS
Sensitization to CIS and GEM (NKPC-961): about equally sensitize
IC50 (C4-2): 4.26 µM
IC50 (ARCaP-E): 4.76 µM
IC50 (MCF-7; Example 13, 72 h): 9.9 µM
IC50 (PC3M): 5.19 µM
IC50 (C4-2B; Example 13, 72 h): 1.81 µM
IC50 (U87): 1.32 µM
IC50 (PC3; Example 13, 72 h): 7.15 µM
IC50 (LNCaP): 1.79 µM

SMILES: CCC(C)(C)C(=O)O[C@H]1C[C@@H](C)C=C2C=C[C@H](C)[C@H](CC[C@@H]3C[C@@H](O)CC(=O)O3)[C@H]21 [SIM, Simvastatin]
IC50 ([1]; 72 h): 13 µM
IC50 (22Rv1; Homo sapiens): 3.52 µM
IC50 (Namalwa; Homo sapiens, Example 13, 72 h, read-out: IC50): 13.4 µM
IC50 (Raji; Homo sapiens): 32.5 µM
IC50 (Ramos; Homo sapiens): 13 µM
IC50 (Daudi; Homo sapiens): 15 µM
IC50 (MIAPaCa II; MIA PaCa-2, Example 13, 72 h): 0.592 µM
IC50 (C4-2; C4-2): 7.73 µM
IC50 (ARCaP-E): 5.61 µM
IC50 (MCF-7; Homo sapiens, MCF7, Example 13, 72 h): 2.69 µM
IC50 (PC3M; Homo sapiens, PC-3M): 0.248 µM
IC50 (C4-2B; Example 13, 72 h): 1.88 µM
IC50 (U87; Homo sapiens, U-87 MG): 0.506 µM
IC50 (PC3; Homo sapiens, PC-3, Example 13, 72 h): 0.991 µM
IC50 (LNCaP; Homo sapiens): 3.76 µM

Further lines, with some results ahead:

IC50 (Namalwa; [2]): 0.666 µM
IC50 (C4-2B; Example 23): 0.0431 µM
IC50 (Caki-1): 0.88 µM
SMILES: COc1cccc2c1C(=O)c1c(O)c3c(c(O)c1C2=O)C[C@@](O)(C(=O)CO)C[C@@H]3O[C@H]1C[C@H](N)[C@H](O)[C@H](C)O1 [Doxorubicin]
IC50 (CTC 752-S-1): 1.82 µM

IC50 (Namalwa; [2]): 0.969 µM
IC50 (C4-2B; Example 23): 0.249 µM
IC50 (Caki-1): 0.74 µM
SMILES: COc1ccc(C[C@H](N)C(=O)N[C@H]2[C@@H](O)[C@H](n3cnc4c(N(C)C)ncnc43)O[C@@H]2CO)cc1 [Puromycin]
IC50 (CTC 752-S-1): 4.87 µM
